Common to all, as to assay type: cell-based, Toxoplasma gondii
For assay [1], the system named is T. gondii carrying a single allele of TK from pDHFRm2m3-TK-TS. Briefly: plaque formation in ganciclovir, TK-transfected parasites. The source says:
A modified hit and run mutagenesis was devised for knocking out the T. gondii gene encoding CPSII. First, a new plasmid vector was developed for positive and negative selection analogous to the plasmid described by Fox, et al. ((1999) Mol. Biochem. Parasitol. 98:93-103), except using the herpes simplex virus type I thymidine kinase (TK) gene instead of bacterial cytosine deaminase in the linker region of DHFR-TS. To create this plasmid two primers, a forward primer GGGAGATCTATGGCTTCGTACCCCGGCCATCAA (SEQ ID NO:10) and a reverse primer GGGGATCCTCAGTTAGCCTCCCCCATCTCCCG (SEQ ID NO:11) were used to PCR amplify, via standard conditions, the ganciclovir hypersensitive TK75 HSVTK allele (Black, et al. (1996) Proc. Natl Acad. Sci. USA 93:3525-3529). The forward primer contains a BglII site and the reverse primer a BamHI site. Following BamHI and BglII digestion of the ˜1130 bp PCR product, the TK allele was ligated into plasmid pDHFRm2m3-FLG-TS which was digested at the unique BamHI site in the FLAG epitope linker. The TK PCR primers were designed to join with pDHFRm2m3-FLG-TS to produce an in-frame insertion of TK between DHFR and TS in a plasmid called pDHFRm2m3-TK-TS, similar to previously described pDHFRm2m3-CD-TS plasmid (Fox, et al. (1999) supra). The trifunctional enzyme plasmid with TK was tested to confirm function of all three enzymes. […]

The test system of assay [2] is mutants cps1, cps2, cps3, cps4. Briefly: plaque formation in ganciclovir, cps mutants.
Assay [3] relates to cps1-1 and cps2-1. Put plainly: drug sensitivity of cps1-1 and cps2-1 in replication and plaque assays. To be noted: 10 μM. The source says:
It is believed that the single recombination into the CPSII locus only partially disrupted expression of CPSII activity in cps1 and cps2. […] Cps1 and cps2 were thus utilized as the parent strain background in which to select a more highly attenuated pyrimidine auxotroph mutant. Both the cps1 and cps2 mutants express a TK allele which was inserted into the CPSII locus. […] Then, approximately 1-2×10^5 cps1 or cps2 parasites was inoculated into a 25 cm^2 HFF flask and selected negatively in the presence of 10 μM ganciclovir plus 200 μM uracil. This is 20 times the dose of ganciclovir necessary to completely block plaque formation of these mutants. […] The parasites which were growing in ganciclovir plus uracil were subcloned in ganciclovir and uracil (same conditions) and individual clones, cps1-1 and cps2-1, were identified from each parent, respectively, for further analysis. The cps1-1 and cps2-1 subclones were first tested for their sensitivity to pyrimethamine. The theory of negative selective in only ganciclovir is that a mutant that disrupts expression of the TK allele should simultaneously acquire sensitivity to pyrimethamine due to loss of the expression of the fused trifunctional DHFR-TK-TS transgene(s) inserted into the CPSII locus of cps1 and cps2.

The test system of assay [4] is wild-type T. gondii. Put plainly: labeling of parasites with [3H]pyrimidines (pyrimidine salvage). Particulars: parasites grown in host cells. The protocol:
(§1) Initial experiments primarily involved an enzymatic analysis of drug resistant mutants and the incorporation of various pyrimidine analogs into T. gondii RNA and DNA as an indication of pyrimidine salvage when parasites were grown in either normal host or mutant host cells. All biochemical communications between the parasite and host cells cross the vacuolar membrane which is now known to contain “pores” that permit the passage of nucleobases ranging in molecular mass from 112 daltons up to 244 daltons. The size of the pores is estimated to be approximately 1500 daltons. A T. gondii mutant resistant to 5-fluorodeoxyuridine (FUDR-1) had lost uracil phosphoribosyltransferase (UPRT), an enzyme which is absent in normal host cells (Pfefferkorn (1978) Expt. Parasitol. 44:26-35). […] FUDR-1 mutant parasites were not labeled with [^3H]deoxyuridine. […] FUDR-1 mutant parasites were not labeled with [^3H]uridine. […] FUDR-1 (UPRT knock-out) parasites were not labeled with [^3H]uracil.
Similarly, since uracil only labels the parasite, due to the parasite UPRT, which is absent in the host, the pyrimidine pools of the parasite are also unavailable to the host. Thus, there is no detectable pyrimidine traffic detected between the parasite and host.

In assay [5] the test system is FUDR-1 mutant parasites. Briefly: labeling of FUDR-1 (UPRT knock-out) parasites with [3H]pyrimidines. The protocol:
as §1

For assay [6], the system named is tachyzoites. Put plainly: uracil incorporation assay. To be noted: [3H]uracil 25 μg/ml. The protocol: Experiments to evaluate the feasibility of constructing pyrimidine auxotrophs of T. gondii were performed. Pyrimidine auxotrophy relies on the ability to feed mutant parasites a pyrimidine nucleobase, such as uracil, in culture medium in amounts that will restore parasite growth to near normal levels. Experiments were therefore conducted to measure whether uracil incorporation into parasites in culture could account for normal replication and normal growth rates. In these experiments, biochemically saturating amounts of [^3H]uracil (25 μg/ml) were added to the growth medium and the quantitative incorporation of label into parasite RNA and DNA was determined over a four hour interval. It was calculated using known values that about 82% of the pyrimidines incorporated into parasite nucleic acids were derived from the uracil which was added to the growth medium as a supplement.
The uracil incorporation assay, results and calculation of uracil incorporation were carried out as follows. Parasites (2.09×10^7) were labeled for 4 hours in medium containing [^3H]uracil at 25 μg per ml or 0.223 μmole per ml, wherein the specific activity of uracil was 34.3 CPM per pmole (CPM=counts per minute). […] Based upon these parameters, it was concluded that 82% of incorporated pyrimidines originate from uracil when it is added to medium.

The test system of assay [7] is cps1 and cps2 mutants. Put plainly: pyrimidine dependence of cps1 and cps2 replication and plaque formation. Particulars: relatively low (thymine, thymidine: moderate) concentrations in medium. From the text:
However, all of these mutants are somewhat “leaky” in that there was not an absolute growth (replication) dependence on uracil addition to the growth medium for replication. Each of these mutants grows at a moderate (½ of normal) growth rate for the first 2 days following infection of a host cell producing vacuoles that contained 16 to 32 parasites by 3 days post infection. In contrast, RH parasites are lysed out of their primary vacuoles at this time (3 days, >64 parasites). However, the cps mutants slow after 3 days and many parasites never (about ⅓) break out of their primary vacuole. If the primary vacuole breaks, a few parasites can be detected at the site of infection but the infection site always involves a small zone of infection that never forms a visible plaque in a standard 7 day plaque assay. To quantitate growth of these mutants, HFF flasks were inoculated with […] or cps2 parasites (about a multiplicity of infection (MOI) of 1 parasite per 20 HFF cells). After 2 hours of attachment and invasion (all of these mutants have normal attachment and invasion phenotypes as scored by counting percent entered parasites into host cells as a function of time post-inoculation), different concentrations of different pyrimidine compound was added to parallel infected HFF flasks. As a function of time post pyrimidine addition (t=0 hour) the number of parasites per vacuole was scored for 50 vacuoles as described by Fox et al. ((1999) supra). The number of parasite doublings was calculated based on 1 parasite entering each primary vacuole. Thus, 1 doubling=2 parasites per vacuole, 3 doublings=8 parasites per vacuole, and 5 doublings=32 parasites per vacuole. The pyrimidine dependence of cps1 and cps2 replication (doublings of parasites in the vacuole) was plotted graphically. […] The response to thymine and thymidine was additionally informative about the cause of the growth defect in cps1 and cps2. […] This is believed to be caused by the putative defect in the cps1 and cps2 mutants which is a reduced “pool” size of UMP. If UMP pools (ultimately used for RNA and DNA synthesis) are lowered it follows that a resulting decrease in TMP pools is expected since UMP is the precursor of TMP in T. gondii and all other apicomplexan parasites which normally lack TK activity. However, since cps1 and cps2 now express a TK activity carried into the parasite by the p53KOX3-1R plasmid, exemplified by sensitivity of these mutants to ganciclovir (specific to HSV TK), feeding parasites either thymine or thymidine is expected to increase TMP pools. Thus, it appears that moderate levels of thymine or thymidine partially rescue growth of cps1 and cps2 by restoring TMP pools. […] Since the parasite has no mechanism to convert TMP back to UMP there is still a defect in the UMP pool in cps1 and cps2 even with added thymine or thymidine and rescue is never complete. The ability of cps1 and cps2 mutants to form plaques on HFF monolayers in the standard 7 day assay paralleled the pyrimidine dependence of parasite replication in vacuoles.
The cps1 and cps2 mutants were inoculated intraperitoneally (i.p.) into balb/c mice to measure parasite virulence compared to virulent RH parasites. Both mutant cps1 and cps2 had equal virulence as RH parasites in balb/c mice (Jackson Labs), killing all mice within 10 days of i.p. inoculation (group size was four mice per parasite strain). Only 100 parasites (˜50 PFU) of each parasite strain was needed to kill all mice in each group. This pattern of virulence can be understood by re-examining the pyrimidine dependence of cps1 and cps2 growth. Uridine is believed to be the pyrimidine responsible for virulence of cps1 and cps2 in mice. Only 5 μM uridine completely rescues normal plaque size of cps1 and cps2 in vitro. Plasma concentrations of uridine in mice are approximately 5 to 10 μM.

In assay [8] the test system is cps1-1 and cps2-1. Briefly: pyrimidine rescue of cps1-1 and cps2-1 replication and plaque formation. Here is the method:
No pyrimidine compound at less than 25 μM could rescue plaque formation of cps1-1 or cps2-1. […] Uridine was quite poor at rescue of plaque formation in cps1-1 and cps2-1.
A more detailed growth response to pyrimidine, measured as parasite replications (doublings) was performed for cps1-1 and cps2-1 and compared to the results previously obtained for […]. […] Uridine rescue was poor, with a slow restoration of growth at very high amounts, >400 μM. Deoxyuridine rescue was significant, but again, full growth rate was not restored at any concentration of deoxyuridine. Rescue with uracil was robust, but only in a limited range of concentration. Full restoration of growth rate in cps1-1 and cps2-1 was possible only with uracil added between 200 and 400 μM. […] This phenotype can only be observed in T. gondii pyrimidine auxotroph mutants, not in wild-type parasites with intact de novo pyrimidine synthesis pathways.
The pyrimidine growth dependence of mutant cps1-1 on the pyrimidine salvage pathway was further documented in thymidine interference experiments. Mutant cps1-1 plaques well in 250 μM uracil or deoxyuridine, but not in 1000 μM thymidine. Since thymidine at 1000 μM is known to inhibit approximately 90% of the parasite nucleoside phosphorylase activity specific for cleavage of deoxyuridine (Iltzsch, (1993) J. Euk. Micro. 40:24-28), growth of cps1-1 was tested in combinations of 1000 μM thymidine and 250 μM uracil or 250 μM deoxyuridine. All pyrimidine salvage in T. gondii must pass through uracil and UPRT conversion of uracil to UMP. In contrast, thymidine has no effect on UPRT activity. Thus, if growth of cps1-1 were dependent on deoxyuridine supplementation then replication in this condition may be inhibited by co-supplementing with 1000 μM thymidine. […] Thus, when cps1-1 is grown in deoxyuridine the parasite strictly requires nucleoside phosphorylase activity to cleave deoxyuridine for growth. […] Thus, cps1-1 and cps2-1 rely strictly on pyrimidine salvage enzymes for growth and further, the HFF host cell in vitro cannot supply sufficient pyrimidines for growth of cps1-1 or cps2-1. […] Such potential inhibitors can only be identified using a pyrimidine auxotroph such as provided in the instant invention.
To assess reversion, 10^6 to 10^7 cps1-1 or cps2-1 parasites were periodically inoculated into HFF flasks supplemented with 5 μM uridine. This concentration of uridine is sufficient to rescue the parent strains (cps1 and cps2) of cps1-1 and cps2-1.

The subject of assay [9] is RH parasite. Put plainly: plaque formation of RH in very high uracil. To be noted: 2000 or 4000 μM uracil.

A value given as a limit tells only on which side of the number the result lay.

As for `Nc1nc(O)c2ncn(COC(CO)CO)c2n1` [ganciclovir], the “ganciclovir concentration in which parasites do not form plaques” value in [1] came out at 0.5 μm. In addition, in assay [2], the “ganciclovir concentration at which ability to form plaques is lost” value is 0.5 µM. For the same molecule, the “sensitivity of cps1-1 and cps2-1 to ganciclovir” value in [3] was “loss of sensitivity”.

Regarding `O=c1cc[nH]c(=O)[nH]1` [uracil], the “incorporation of [3H]-labeled pyrimidine into wild-type parasites” value in assay [4] was “incorporated into wild-type T. gondii”. In addition, in [5], the “labeling of FUDR-1 mutant parasites with [3H]pyrimidine” value is “not labeled”. In assay [6], the actual incorporation is given as 0.00032 pmoles pyrimidine per tachyzoite per 4 hours. Besides, the “rescue of growth rate / replication of cps1 and cps2” value in assay [7] was “completely rescued”. Moreover, the “plaque formation of cps1-1” value in [8] (250 μM supplement) is “plaques well”. In addition, in assay [8] (36-hour replication assay, HFF), the “rescue of replication (doublings) of cps1-1 and cps2-1” value was “robust”. The “plaque formation of cps1-1, cps2-1, cps1 and cps2” value in assay [8] (2000 or 4000 μM uracil) is recorded as “do not even form plaques”. Besides, in [8] (cps1-1, cps2-1), the “uracil concentration above which growth rate is reduced significantly” value was greater than 500 µM. The entries for the “rescue of plaque formation of cps1-1 and cps2-1” value in assay [8] (plaque assay) and in assay [8] (pyrimidine concentrations up to 200 μM) were “significant growth rescue” and “completely rescued”, respectively. Besides, in assay [9], the “effect on RH parasite plaques” value was “no effect”.

The values above are taken from patent US8673289B2, “Attenuated uracil auxotroph of an apicomplexan and use thereof” (priority 2007, dated 2014).
